Usually CC50 stands for the concentration at which the toxic effect on the cells reaches its halfway point.

Series [1] can be described thus: Cytotoxicity in mock-infected MT-4 cells. The following applies: human.
Series [2] concerns HIV-1 RES056 (K103N/Y181C). The series can be described thus: microbe, parasite or virus in culture. It is filed as cell-based. The following applies: for EC50: Human immunodeficiency virus 1, MT4, read-out: EC50 RES056; for SI RES056: ratio of CC50/EC50, RES056.
Series [3] deals with HIV-1 mutant strain L100I. The series can be described thus: microbe, parasite or virus in culture. In kind it is cell-based. The following applies: Human immunodeficiency virus 1, MT4, read-out: EC50 L100I.
Series [4] has as its system HIV-1 mutant strain E138K. The series can be described thus: microbe, parasite or virus in culture. It is filed as cell-based. The following applies: Human immunodeficiency virus 1, MT4, read-out: EC50 E138K.
The test system of series [5] is HIV-1 double mutant strain F227L/V106A. The series can be described thus: microbe, parasite or virus in culture. The conditions noted are these: Human immunodeficiency virus 1, MT4, read-out: EC50 F227L/V106A. In kind it is cell-based.
Series [6] has as its system HIV-1 mutant strain Y181C. The series can be described thus: microbe, parasite or virus in culture. In kind it is cell-based. The conditions noted are these: Human immunodeficiency virus 1, MT4, read-out: EC50 Y181C.
For series [7], the system named is HIV-1 mutant strain Y188L. Kind of series: microbe, parasite or virus in culture. It is filed as cell-based. The conditions noted are these: Human immunodeficiency virus 1, MT4, read-out: EC50 Y188L.
The test system of a further series is WT HIV-1 (IIIB). Kind of series: microbe, parasite or virus in culture. The following applies: for EC50: Human immunodeficiency virus 1, IIIB, MT4, read-out: EC50 IIIB; for SI IIIB: ratio of CC50/EC50, IIIB. In kind it is cell-based.
For series [8], the system named is HIV-1 mutant strain K103N. Kind of series: microbe, parasite or virus in culture. In kind it is cell-based. The following applies: Human immunodeficiency virus 1, MT4, read-out: EC50 K103N.

`CCCCOP(=O)(OCCCC)c1ccc(CN2CCC(Nc3nc(Oc4c(C)cc(C#N)cc4C)c4sccc4n3)CC2)cc1` [9d, Dibutyl (4-((4-((4-(4-cyano-2,6-dimethylphenoxy)thieno[3,2-d]pyrimidin-2-yl)amino)piperidin-1-yl)methyl)phenyl)phosphonate] gave a CC50 at 5 days in [1] of 7800 ± 1530 nM. Further, the EC50 was found to be 6500 ± 483 nM in [2]; 230 ± 54 nM in [3]; 241 ± 34.9 nM in series [4]; 248 ± 37.3 nM in series [5]; 311 ± 50.4 nM in [6]; 240 ± 58.3 nM in series [7]. The results for the EC50 (in the series on WT HIV-1 (IIIB); in series [8]) were 125 ± 39 nM and 196 ± 13.6 nM, respectively. Further, in series [2], the “SI RES056” value is given as 1. Moreover, the “SI IIIB” value with WT HIV-1 (IIIB) was 62.

In [1], `Cc1cc(C#N)cc(C)c1Oc1nc(NC2CCN(Cc3ccc(P(=O)(OCC(F)(F)F)OCC(F)(F)F)cc3)CC2)nc2ccsc12` [9e, Bis(2,2,2-trifluoroethyl) (4-((4-((4-(4-cyano-2,6-dimethylphenoxy)thieno[3,2-d]pyrimidin-2-yl)amino)piperidin-1-yl)methyl)phenyl)phosphonate] yielded a 50% cytotoxic concentration (CC50) at 5 days of 17400 ± 2850 nM. The EC50 in [2] was determined as 1300 ± 120 nM; in series [3], 165 ± 111 nM; in series [4], 137 ± 83 nM; in series [5], 65.1 ± 19.5 nM; in series [6] it was 248 ± 60.4 nM; in [7], 142 ± 63.3 nM. Further, the EC50 in the series on WT HIV-1 (IIIB) was 33 ± 7.63 nM; in series [8], 45.8 ± 4.61 nM. Besides, the “SI RES056” value in series [2] was determined as 13. The “SI IIIB” value in the series with WT HIV-1 (IIIB) came to 527.

`Cc1cc(C#N)cc(C)c1Oc1nc(NC2CCN(Cc3ccc(P(=O)(OC(C)C)OC(C)C)cc3)CC2)nc2ccsc12` [9f, Diisopropyl (4-((4-((4-(4-cyano-2,6-dimethylphenoxy)thieno[3,2-d]pyrimidin-2-yl)amino)piperidin-1-yl)methyl)phenyl)phosphonate]: in series [1], the 50% cytotoxic concentration (CC50) at 5 days stood at 111000 ± 33600 nM. For the same molecule, the EC50 in series [2] is 514 ± 57.1 nM; in series [3], 29.5 ± 14.2 nM; in series [4], 41.3 ± 15.3 nM; in series [5], 28.4 ± 13.4 nM; in series [6] it was 73.5 ± 69.4 nM; in series [7] it was 42 ± 11.7 nM. The EC50 was 24.8 ± 14.8 nM with WT HIV-1 (IIIB) and 22.6 ± 7.83 nM in series [8]. In addition, in series [2], the “SI RES056” value turned out to be 216. In the series with WT HIV-1 (IIIB), the “SI IIIB” value is 4476.

In [1], `Cc1cc(C#N)cc(C)c1Oc1nc(NC2CCN(Cc3ccc(P(=O)(OC(C)(C)C)OC(C)(C)C)cc3)CC2)nc2ccsc12` [9g, Di-tert-butyl (4-((4-((4-(4-cyano-2,6-dimethylphenoxy)thieno[3,2-d]pyrimidin-2-yl)amino)piperidin-1-yl)methyl)phenyl)phosphonate] gave a CC50 at 5 days of 16300 ± 4280 nM. Also, the EC50 is > 16300 nM in series [2]; 310 ± 57.8 nM in [3]; 179 ± 19.8 nM in series [4]; 637 ± 492 nM in series [5]; 719 ± 263 nM in series [6]; 445 ± 157 nM in [7]. The EC50 in the series on WT HIV-1 (IIIB) was determined as 99.3 ± 37 nM; in series [8], 124 ± 26.2 nM. Moreover, the “SI RES056” value in series [2] is given as <1. For the same molecule, the “SI IIIB” value with WT HIV-1 (IIIB) is 164.

`Cc1cc(C#N)cc(C)c1Oc1nc(NC2CCN(Cc3ccc(P(=O)(OCC(C)C)OCC(C)C)cc3)CC2)nc2ccsc12` [9h, Diisobutyl (4-((4-((4-(4-cyano-2,6-dimethylphenoxy)thieno[3,2-d]pyrimidin-2-yl)amino)piperidin-1-yl)methyl)phenyl)phosphonate] returned a CC50 at 5 days in [1] of 8780 ± 9120 nM. Also, the EC50 in [2] came to 13200 nM; in [3], 135 ± 28.4 nM; in [4], 124 ± 31.4 nM; in [5] it was 104 ± 53.1 nM; in [6], 182 ± 40.5 nM; in [7], 174 ± 94.9 nM. Moreover, the results for the EC50 (in the series with WT HIV-1 (IIIB); in [8]) were 90.9 ± 50.8 nM and 53.3 ± 19 nM, respectively. In [2], the “SI RES056” value came to 1. Further, the “SI IIIB” value in the series with WT HIV-1 (IIIB) came to 97.

(Values after article PMC11252457 (Acta Pharmaceutica Sinica. B, 2024).)
